Key:
[1] = target: T1, human PPARβ ligand binding domain (GST-PPARβ-LBD) (Homo sapiens, UniProt Q03181); assay: in vitro PPARβ/SRC-1 binding assay (GST-PPARβ-LBD / SRC-Luc complex captured on glutathione-sepharose beads, luciferase readout); conditions: each ligand at final 5 μM; FIG. 3
T1 construct: made in house
T1 sequence (Q03181 136-441): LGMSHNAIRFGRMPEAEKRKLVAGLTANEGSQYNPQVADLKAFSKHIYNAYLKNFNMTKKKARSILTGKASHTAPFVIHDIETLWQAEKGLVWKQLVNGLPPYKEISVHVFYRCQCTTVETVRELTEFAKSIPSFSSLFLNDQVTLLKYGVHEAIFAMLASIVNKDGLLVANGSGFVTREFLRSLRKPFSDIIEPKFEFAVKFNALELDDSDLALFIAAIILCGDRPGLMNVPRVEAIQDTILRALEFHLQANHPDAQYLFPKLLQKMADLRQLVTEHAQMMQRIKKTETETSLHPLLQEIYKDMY
T1 sequence (Q15788 631-763 partner limits assumed): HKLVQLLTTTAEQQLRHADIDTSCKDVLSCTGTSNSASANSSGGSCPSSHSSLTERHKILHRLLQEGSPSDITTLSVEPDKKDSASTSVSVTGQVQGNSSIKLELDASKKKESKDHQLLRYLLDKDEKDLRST

[2] = target: T2, human PPARα ligand binding domain (GST-PPARα-LBD) (Homo sapiens, UniProt Q07869); assay: in vitro PPARα/SRC-1 binding assay (GST-PPARα-LBD / SRC-Luc complex captured on glutathione-sepharose beads, luciferase readout)
T2 construct: made in house; host or cells: E. coli BL21(DE3)pLysS
T2 sequence (Q07869 164-468): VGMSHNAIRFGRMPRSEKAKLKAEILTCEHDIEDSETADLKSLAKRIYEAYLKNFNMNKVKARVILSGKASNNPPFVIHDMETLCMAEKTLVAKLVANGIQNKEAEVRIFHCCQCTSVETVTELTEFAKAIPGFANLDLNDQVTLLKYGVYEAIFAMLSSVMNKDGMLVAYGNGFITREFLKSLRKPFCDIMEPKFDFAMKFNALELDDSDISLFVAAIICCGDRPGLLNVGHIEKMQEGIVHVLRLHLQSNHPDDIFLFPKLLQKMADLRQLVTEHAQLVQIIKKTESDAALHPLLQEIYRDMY
T2 sequence (Q15788 631-763 partner limits assumed): T1 sequence (Q15788 631-763 partner limits assumed)
From the text: For this example, the peroxisome proliferator-activated receptor-α (PPARα) nuclear receptor was chosen. The PPAR LBD was expressed in bacteria as a GST fusion protein (GST-PPARα-LBD) for use in the assay (FIG. 1). Also chosen was a known PPARα coactivator, SRC-1 (Takeshita Endocrinology 137:3594-3597 (1996)). SRC-1 was expressed as a GST fusion protein also containing a firefly luciferase moiety (GST-SRC-Luc). The GST moiety was subsequently cleaved away from purified GST-SRC-1-Luc protein to yield a purified SRC-Luc protein (FIG. 1). A known PPARα ligand, GW2331, was also chosen for establishing the assay.
The GST-PPARα-LBD expression plasmid was prepared as follows: the human PPARα ligand binding domain including the hinge region (amino acids 164-468, accession #S74349) was PCR amplified from HepG2 first-strand cDNA using synthetic primers (SEQ ID:1 and SEQ ID:2) and native Taq polymerase. The primers were tagged with BamHI (5′) and NotI (3′) restriction sites to facilitate cloning. PCR fragments were cloned directly into pGEM®-T (Promega Corp), screened by diagnostic restriction digests, and confirmed by DNA sequence analysis. A combination of clones was used to generate a complete, error-free clone. The PPARα hinge/ligand binding domain clone was then transferred into pGEX-4T-3 (Amersham Pharmacia Biotech) as a BamH I/Not I fragment to create an in-frame fusion with GST. […]

binding of ligand by GST-PPARβ-LBD (luciferase activity of the isolated complex with SRC-Luc) [1]: roughly equal efficiency
binding of ligand by GST-PPARα-LBD (luciferase activity of the isolated complex with SRC-Luc) ([2]; each ligand at final 5 μM, FIG. 3): efficiently
amount of GST-PPARα-LBD/GW2331 ligand/SRC-Luc complex (luciferase activity, light units) as the ligand concentration was increased ([2]; ligand at 0.001, 0.01, 0.1, 1.0, 10.0 and 100.0 μM, 2 h at 4° C., FIG. 2): also increased
SMILES: CCCCCCCN(CCc1ccc(OC(C)(CC)C(=O)O)cc1)C(=O)Nc1ccc(F)cc1F (stereo not drawn) [GW2331, spec/2-(4-[2-(3[2,4-Difluorophenyl]-1-heptylureido)ethyl]phenoxy)-2-methylbutyric acid]
